From ChEMBL document CHEMBL4610097, “Daphnane Diterpenoids from Daphne genkwa Inhibit PI3K/Akt/mTOR Signaling and Induce Cell Cycle Arrest and Apoptosis in Human Colon Cancer Cells” (J Nat Prod, 2020)
Active and inactive are the calls of the source. The calls are words filed in the database; no cut-off is given here.

Experiments:
[1] = system: RKO; assay: Cytotoxicity against human RKO cells after 24 hrs by MTT assay; assay type: functional, cell-based
[2] = system: SW-620; assay: Induction of morphological changes in human SW620 cells assessed as nuclear condensation at […] to 1.48 uM after 24 hrs by acridine orange/propidium iodide staining based microscopic analysis; assay type: functional, cell-based
[3] = system: SW-620; assay: Induction of apoptosis in human SW620 cells assessed as appearance of apoptotic bodies at 11.84 uM after 24 hrs by acridine orange/propidium iodide staining based microscopic analysis; assay type: functional, cell-based
[4] = system: SW-620; assay: Induction of cell cycle arrest in human SW620 cells assessed as accumulation at S phase at 0.74 uM after 24 hrs by propidium iodide staining-based flow cytometric analysis (reference value: 23.83%); assay type: functional
[5] = system: SW-620; assay: Induction of cell cycle arrest in human SW620 cells assessed as accumulation at G2/M phase at 1.48 uM after 24 hrs by propidium iodide staining-based flow cytometric analysis (reference value: 20.06%); assay type: functional
[6] = system: SW-620; assay: Induction of cell cycle arrest in human SW620 cells assessed as accumulation at G0/G1 phase at 2.96 uM after 24 hrs by propidium iodide staining-based flow cytometric analysis (reference value: 56.11%); assay type: functional
[7] = system: SW-620; assay: Induction of cell cycle arrest in human SW620 cells assessed as accumulation at S phase at 2.96 uM after 24 hrs by propidium iodide staining-based flow cytometric analysis (reference value: 23.83%); assay type: functional
[8] = system: SW-620; assay: Induction of cell cycle arrest in human SW620 cells assessed as accumulation at G2/M phase at 5.92 uM after 24 hrs by propidium iodide staining-based flow cytometric analysis (reference value: 20.06%); assay type: functional
[9] = system: SW-620; assay: Induction of cell cycle arrest in human SW620 cells assessed as accumulation at S phase at 5.92 uM after 24 hrs by propidium iodide staining-based flow cytometric analysis (reference value: 23.83%); assay type: functional
[10] = system: SW-620; assay: Induction of cell cycle arrest in human SW620 cells assessed as accumulation at G0/G1 phase at 11.84 uM after 24 hrs by propidium iodide staining-based flow cytometric analysis (reference value: 56.11%); assay type: functional
[11] = system: SW-620; assay: Induction of cell cycle arrest in human SW620 cells assessed as accumulation at G2/M phase at 11.84 uM after 24 hrs by propidium iodide staining-based flow cytometric analysis (reference value: 20.06%); assay type: functional
[12] = system: SW-620; assay: Induction of cell cycle arrest in human SW620 cells assessed as accumulation at S phase at 11.84 uM after 24 hrs by propidium iodide staining-based flow cytometric analysis (reference value: 23.83%); assay type: functional
[13] = system: SW-620; assay: Induction of apoptosis in human SW620 cells assessed as viable cells at 0.74 uM after 24 hrs by annexin V/propidium iodide staining-based flow cytometric analysis (reference value: 96.9%); assay type: functional; settings: SW-620, 24 h, read-out: Activity
[14] = system: SW-620; assay: Induction of apoptosis in human SW620 cells assessed as early apoptotic cells at 0.74 uM after 24 hrs by annexin V/propidium iodide staining-based flow cytometric analysis (reference value: 0.36%); assay type: functional
[15] = system: SW-620; assay: Induction of apoptosis in human SW620 cells assessed as late apoptotic cells at 0.74 uM after 24 hrs by annexin V/propidium iodide staining-based flow cytometric analysis (reference value: 2.40%); assay type: functional
[16] = system: SW-620; assay: Induction of apoptosis in human SW620 cells assessed as necrotic cells at 0.74 uM after 24 hrs by annexin V/propidium iodide staining-based flow cytometric analysis (reference value: 0.30%); assay type: functional
[17] = system: SW-620; assay: Induction of apoptosis in human SW620 cells assessed as early apoptotic cells at 1.48 uM after 24 hrs by annexin V/propidium iodide staining-based flow cytometric analysis (reference value: 0.36%); assay type: functional
[18] = system: SW-620; assay: Induction of apoptosis in human SW620 cells assessed as late apoptotic cells at 1.48 uM after 24 hrs by annexin V/propidium iodide staining-based flow cytometric analysis (reference value: 2.40%); assay type: functional
[19] = system: SW-620; assay: Induction of apoptosis in human SW620 cells assessed as viable cells at 2.96 uM after 24 hrs by annexin V/propidium iodide staining-based flow cytometric analysis (reference value: 96.9%); assay type: functional; settings: SW-620, 24 h, read-out: Activity
[20] = system: SW-620; assay: Induction of apoptosis in human SW620 cells assessed as early apoptotic cells at 2.96 uM after 24 hrs by annexin V/propidium iodide staining-based flow cytometric analysis (reference value: 0.36%); assay type: functional
[21] = system: SW-620; assay: Induction of apoptosis in human SW620 cells assessed as late apoptotic cells at 2.96 uM after 24 hrs by annexin V/propidium iodide staining-based flow cytometric analysis (reference value: 2.40%); assay type: functional
[22] = system: SW-620; assay: Induction of apoptosis in human SW620 cells assessed as necrotic cells at 2.96 uM after 24 hrs by annexin V/propidium iodide staining-based flow cytometric analysis (reference value: 0.30%); assay type: functional
[23] = system: SW-620; assay: Induction of apoptosis in human SW620 cells assessed as early apoptotic cells at 5.92 uM after 24 hrs by annexin V/propidium iodide staining-based flow cytometric analysis (reference value: 0.36%); assay type: functional
[24] = system: SW-620; assay: Induction of apoptosis in human SW620 cells assessed as late apoptotic cells at 5.92 uM after 24 hrs by annexin V/propidium iodide staining-based flow cytometric analysis (reference value: 2.40%); assay type: functional
[25] = system: SW-620; assay: Induction of apoptosis in human SW620 cells assessed as necrotic cells at 5.92 uM after 24 hrs by annexin V/propidium iodide staining-based flow cytometric analysis (reference value: 0.30%); assay type: functional
[26] = system: SW-620; assay: Induction of apoptosis in human SW620 cells assessed as viable cells at 11.84 uM after 24 hrs by annexin V/propidium iodide staining-based flow cytometric analysis (reference value: 96.9%); assay type: functional; settings: SW-620, 24 h, read-out: Activity
[27] = system: SW-620; assay: Induction of apoptosis in human SW620 cells assessed as late apoptotic cells at 11.84 uM after 24 hrs by annexin V/propidium iodide staining-based flow cytometric analysis (reference value: 2.40%); assay type: functional
[28] = system: SW-620; assay: Induction of apoptosis in human SW620 cells assessed as increase in Bax/Bcl2 ratio at 0.74 to 11.84 uM after 24 hrs by Western blot analysis; assay type: functional, cell-based
[29] = system: SW-620; assay: Induction of apoptosis in human SW620 cells assessed as increase in cleaved caspase-9 at 0.74 to 11.84 uM after 24 hrs by Western blot analysis; assay type: functional, cell-based
[30] = system: SW-620; assay: Induction of apoptosis in human SW620 cells assessed as increase in cleaved PARP at 0.74 to 11.84 uM after 24 hrs by Western blot analysis; assay type: functional, cell-based
[31] = system: SW-620; assay: Downregulation of PI3K p85 expression in human SW620 cells at 0.74 to 11.84 uM after 24 hrs by Western blot analysis; assay type: functional, cell-based
[32] = system: SW-620; assay: Effect on AKT expression in human SW620 cells at 0.74 to 11.84 uM after 24 hrs by Western blot analysis; assay type: cell-based; settings: sw-620, 24 h
[33] = system: SW-620; assay: Effect on mTOR expression in human SW620 cells at 0.74 to 11.84 uM after 24 hrs by Western blot analysis; assay type: cell-based; settings: sw-620, 24 h
[34] = Inhibition of PI3K/Akt/mTOR signalling pathway in human SW620 cells assessed as reduction in Akt phosphorylation at 0.74 to 11.84 uM after 24 hrs by Western blot analysis; assay type: cell-based; settings: SW-620

Question: Which IC50 [1] does the source give for C=C(C)[C@@]12O[C@@]3(/C=C/C=C/CCCCC)O[C@@H]1[C@@H]1[C@H](O)[C@@](O)(CO)[C@@H](O)[C@]4(O)C(=O)C(C)=C[C@H]4[C@@]1(O3)[C@H](C)[C@H]2OC(=O)c1ccccc1 here?
Answer: The IC50 was 6.5 µM.

Question: What about the Activity [2] of the same molecule?
Answer: Its Activity is “Active”.

Question: And the Activity [3]?
Answer: Its Activity is “Active”.

Question: What about the Activity [4] of the same molecule?
Answer: The Activity was 14.24%.

Question: What about the Activity [5] of the same molecule?
Answer: The Activity was 7.08%.

Question: And the Activity [6]?
Answer: The Activity was 82.07%.

Question: What about the Activity [7] of the same molecule?
Answer: The Activity was 12.76%.

Question: What about the Activity [8] of the same molecule?
Answer: The Activity was 3.52%.

Question: What about the Activity [9] of the same molecule?
Answer: Its Activity is 11.73%.

Question: What about the Activity [10] of the same molecule?
Answer: The Activity was 88.08%.

Question: What about the Activity [11] of the same molecule?
Answer: The Activity was 2.43%.

Question: And the Activity [12]?
Answer: The Activity was 9.49%.

Question: And the viability at 0.74 µM [13]?
Answer: The viability at 0.74 µM was 80.8%.

Question: And the Activity [14]?
Answer: Its Activity is 3.24%.

Question: What about the Activity [15] of the same molecule?
Answer: The Activity was 15.9%.

Question: And the Activity [16]?
Answer: The Activity was 0.1%.

Question: And the Activity [17]?
Answer: Its Activity is 5.64%.

Question: What about the Activity [18] of the same molecule?
Answer: Its Activity is 48.5%.

Question: And the viability at 2.96 µM [19]?
Answer: The viability at 2.96 µM was 44.1%.

Question: And the Activity [20]?
Answer: The Activity was 6.18%.

Question: What about the Activity [21] of the same molecule?
Answer: The Activity was 49.4%.

Question: And the Activity [22]?
Answer: The Activity was 0.33%.

Question: And the Activity [23]?
Answer: The Activity was 4.67%.

Question: And the Activity [24]?
Answer: Its Activity is 58.5%.

Question: What about the Activity [25] of the same molecule?
Answer: The Activity was 0.25%.

Question: And the viability at 11.84 µM [26]?
Answer: Its viability at 11.84 µM is 1.33%.

Question: What about the Activity [27] of the same molecule?
Answer: The Activity was 86.3%.

Question: And the Activity [28]?
Answer: The Activity was “Active”.

Question: And the Activity [29]?
Answer: Its Activity is “Active”.

Question: And the Activity [30]?
Answer: The Activity was “Active”.

Question: And the Activity [31]?
Answer: The Activity was “Active”.

Question: And the Activity [32]?
Answer: The Activity was “Non-Toxic”.

Question: And the Activity [33]?
Answer: The Activity was “Non-Toxic”.

Question: What about the inhibition [34] of the same molecule?
Answer: The inhibition was “Active”.
